Test results: patent US7718808B2, “Thiazole derivatives” (Kyowa Hakko Kirin Co., Ltd., priority 2003, dated 2010)

Columns and labels:
[1] = target: T1, Rat Adenosine A2A Receptor (Rattus norvegicus, UniProt P30543); assay: Adenosine A2A receptor binding test (3H-CGS21680 binding, rat corpus striatum); conditions: test compound 10^−7 mol/L, 25° C., 120 minutes; for inhibition at 0.1 µM: read-out: Rat Adenosine A2A Receptor Binding Inhibition rate (%) (10^−7 mol/L)
T1 construct: tissue Nippon SLC (animals); host or cells: rat (SD) corpus striatum membrane homogenate
T1 sequence (P30543 whole entry): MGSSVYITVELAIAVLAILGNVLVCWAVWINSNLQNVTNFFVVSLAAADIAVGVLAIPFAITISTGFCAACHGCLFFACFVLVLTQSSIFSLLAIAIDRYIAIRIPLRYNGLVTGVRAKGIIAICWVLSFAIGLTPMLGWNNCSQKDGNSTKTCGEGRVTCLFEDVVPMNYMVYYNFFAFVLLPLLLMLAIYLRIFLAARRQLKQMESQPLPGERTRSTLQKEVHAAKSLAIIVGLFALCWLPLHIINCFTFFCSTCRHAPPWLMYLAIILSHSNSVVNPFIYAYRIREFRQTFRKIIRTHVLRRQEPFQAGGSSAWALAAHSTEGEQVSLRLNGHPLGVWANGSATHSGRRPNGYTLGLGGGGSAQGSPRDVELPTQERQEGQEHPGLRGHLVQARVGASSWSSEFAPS
Experimental: This test was carried but in a similar manner to a Bruns et al's method (Molecular Pharmacology, Vol. 29, p. 331, 1986).
Corpus striatum of rats (SD rat, by Nippon SLC) was suspended in 50 mL of an ice-cooled 50 mmol/L tris(hydroxymethyl)aminomethane hydrochloride (Tris-HCl) buffer (pH 7.7) using a polytron homogenizer (by Kinematica). The resulting homogenate was centrifuged (48,000×g, 20 minutes), and the resulting precipitate was again suspended by adding the same amount of a 50 mmol/L Tris-HCl buffer, followed by centrifugation under the same condition. The resulting final precipitate was suspended by adding a 50 mmol/L Tris-HCl buffer [containing 10 mmol/L magnesium chloride, adenosine deaminase 0.02 units/mg tissue (by Sigma)] so that the tissue concentration was 5 mg (wet weight)/mL.
To 100 μL of the above purified tissue suspension, were added 80 μL (final concentration […]) of tritium-labeled CGS-21680 {^3H-2-[p-(2-carboxyethyl)phenethylamino]-5′-(N-ethylcarboxamido)-adenosine: 40 curies/mmol; by New England Nuclear [The Journal of Pharmacology and Experimental Therapeutics, Vol. 251, p. 888, 1989]} and 20 μL of a test compound solution (10^−7 mol/L; a solution of a test compound in DMSO was diluted with Tris-HCl buffer). The resulting mixture was allowed to stand at 25° C. for 120 minutes, followed by rapid suction filtration through a glass fiber paper filter (GF/C; by Whatman). The filter was immediately washed three times with 200 μL of an ice-cooled 50 mmol/L Tris-HCl buffer. The glass fiber paper filter was transferred into a vial, Microscinti (by Perkin Elmer) was added thereto, and the radioactivity level was measured with Topcount (by Perkin Elmer).
The inhibition rate of the test compound to the adenosine A2A receptor binding (^3H-CGS21680 binding) was calculated according to the following formula.
Amount of total binding means the ^3H-CGS21680 binding radioactivity content in the absence of the test compound. Amount of non-specific binding means the ^3H-CGS21680 binding radioactivity content in the presence of 100 μmol/L cyclopentyladenosine (CPA; by Sigma). Amount of binding in the presence of test compound means the ^3H-CGS21680 binding radioactivity content in the presence of 10^−7 mol/L of the test compound.

Structure (SMILES) | inhibition at 0.1 µM [1] [%] | melting point [°C] | Rat Adenosine A2A Receptor Binding Inhibition rate (%) (10^−7 mol/L) [1]
O=C(Nc1nc(-c2ccco2)c(C(=O)c2ccc(F)cc2)s1)c1ccncc1 [Compound 170, N-[5-(4-Fluorobenzoyl)-4-(2-furyl)thiazol-2-yl]pyridine-4-carboxamide] | 87 | – | –
O=C(Nc1nc(-c2ccco2)c(C(=O)c2ccccn2)s1)c1ccncc1 [Compound 187, N-[4-(2-Furyl)-5-(pyridin-2-ylcarbonyl)thiazol-2-yl]pyridine-4-carboxamide] | 86 | 218 to 227 | –
O=C(Nc1nc(-c2ccco2)c(C(=O)C2CCOCC2)s1)C1CC1 [Compound 456, N-[4-(2-Furyl)-5-(tetrahydropyran-4-ylcarbonyl)thiazol-2-yl]cyclopropanecarboxamide] | 94 | 182 to 183 | –
O=C(Nc1nc(-c2ccco2)c(C(=O)C2CCOCC2)s1)c1ccc(Cl)nc1 [Compound 502, 2-Chloro-N-[4-(2-furyl)-5-(tetrahydropyran-4-ylcarbonyl)thiazol-2-yl]pyridine-5-carboxamide] | 90 | 233 to 235 | –
COc1cccc(C(=O)Nc2nc(-c3ccco3)c(C(=O)C3CCOCC3)s2)c1 [Compound 462, N-[4-(2-Furyl)-5-(tetrahydropyran-4-ylcarbonyl)thiazol-2-yl]-3-methoxybenzamide] | 99 | 198 to 200 | –
CS(=O)(=O)c1ccc(N2CCC(C(=O)Nc3nc(-c4ccco4)c(N4CCOCC4)s3)CC2)nc1 [Compound 46, N-[4-(2-Furyl)-5-morpholinothiazol-2-yl]-1-[5-(methanesulfonyl)pyridin-2-yl]piperidine-4-carboxamide] | 95 | – | –
O=C(Nc1nc(-c2ccco2)c(C(=O)c2ccccn2)s1)c1ccco1 [Compound 234, N-[4-(2-Furyl)-5-(pyridin-2-ylcarbonyl)thiazol-2-yl]furan-2-carboxamide] | 100 | 184 to 185 | –
O=C(Nc1nc(-c2ccco2)c(C(=O)C2CCOCC2)s1)c1ccco1 [Compound 511, N-[4-(2-Furyl)-5-(tetrahydropyran-4-ylcarbonyl)thiazol-2-yl]furan-2-carboxamide] | 88 | 196 to 198 | –
O=C(Nc1nc(-c2ccco2)c(C(=O)c2ccccc2)s1)c1ccncc1 [Compound 99, N-[5-Benzoyl-4-(2-furyl)thiazol-2-yl]pyridine-4-carboxamide] | 98 | – | –
O=C(Nc1nc(-c2ccco2)c(C(=O)C2CCOCC2)s1)c1ccc(F)cc1 [Compound 468, 4-Fluoro-N-[4-(2-furyl)-5-(tetrahydropyran-4-ylcarbonyl)thiazol-2-yl]benzamide] | 93 | 131 to 132 | –
CCOC(=O)c1sc(NC(=O)c2ccncc2)nc1-c1ccco1 [Compound 24, N-(5-(Ethoxycarbonyl)-4-(2-furyl)thiazol-2-yl]pyridine-4-carboxamide] | 88 | – | –
O=C(Nc1nc(-c2ccco2)c(C(=O)C2CCCC2)s1)c1ccncc1 [Compound 431, N-[5-(Cycolopentylcarbonyl)-4-(2-furyl)thiazol-2-yl]-pyridine-4-carboxamide] | – | – | 98
O=C(CN1CCOCC1)Nc1nc(-c2ccco2)c(C(=O)C2CCOCC2)s1 [Compound 558, N-[4-(2-Furyl)-5-(tetrahydropyran-4-ylcarbonyl)thiazol-2-yl]-2-morpholinoacetamide] | 92 | – | –
O=C(Nc1nc(-c2ccco2)c(-c2ccncc2)s1)c1ccoc1 [Compound 9, N-[4-(2-Furyl)-5-(4-pyridyl)thiazol-2-yl]furan-3-carboxamide] | 100 | – | –
CN1CCN(c2cc(C(=O)Nc3nc(-c4ccco4)c(N4CCOCC4)s3)ccn2)CC1 [Compound 41, N-[4-(2-Furyl)-5-morpholinothiazol-2-yl]-2-(4-methylpiperazin-1-yl)pyridine-4-carboxamide] | 92 | – | –
O=C(Nc1nc(-c2ccco2)c(-c2ccncc2)s1)c1ccc(Cn2ccnc2)cc1 [Compound 19, N-[4-(2-Furyl)-5-(4-pyridyl)thiazol-2-yl]-4-(imidazol-1-ylmethyl)benzamide] | 90 | – | –
O=C(Nc1nc(-c2ccco2)c(Cc2ccccc2)s1)c1ccncc1 [Compound 23, N-[5-Benzyl-4-(2-furyl)thiazol-2-yl]pyridine-4-carboxamide] | 85 | – | –

Structure (SMILES) | inhibition at 0.1 µM [1] [%] | melting point [°C] | Rat Adenosine A2A Receptor Binding Inhibition rate (%) (10^−7 mol/L) [1]
O=C(Nc1nc(-c2ccco2)c(C(=O)c2nccs2)s1)c1ccncc1 [Compound 348, N-[4-(2-Furyl)-5-(thiazol-2-ylcarbonyl)thiazol-2-yl]pyridine-4-carboxamide] | 100 | 228 to 240 | –
O=C(Nc1nc(-c2ccco2)c(-c2ccncc2)s1)C1CCCCC1 [Compound 4, N-[4-(2-Furyl)-5-(4-pyridyl)thiazol-2-yl]cyclohexanecarboxamide] | 95 | – | –
Cc1ccc(C(=O)Nc2nc(-c3ccco3)c(C(=O)C3CCOCC3)s2)cn1 [Compound 504, N-[4-(2-Furyl)-5-(tetrahydropyran-4-ylcarbonyl)thiazol-2-yl]-2-methylpyridine-5-carboxamide] | 100 | – | –
O=C(Nc1nc(-c2ccco2)c(CN2CCSCC2)s1)c1ccncc1 [Compound 87, N-[4-(2-Furyl)-5-(thiomorpholinomethyl)thiazol-2-yl]pyridine-4-carboxamide] | 100 | – | –
O=C(Nc1nc(-c2ccco2)c(-c2ccncc2)s1)c1cccnc1 [Compound 5, N-[4-(2-Furyl)-5-(4-pyridyl)thiazol-2-yl]pyridine-3-carboxamide] | 100 | – | –
O=C(Nc1nc(-c2ccco2)c(-c2ccncc2)s1)c1ccco1 [Compound 8, N-[4-(2-Furyl)-5-(4-pyridyl)thiazol-2-yl]furan-2-carboxamide] | 100 | – | –
O=C(Nc1nc(-c2ccco2)c(CN2CCOCC2)s1)c1cccnc1 [Compound 94, N-[4-(2-Furyl)-5-(morpholinomethyl)thiazol-2-yl]pyridine-3-carboxamide] | 100 | – | –
O=C(Nc1nc(-c2ccco2)c(-c2ccncc2)s1)c1ccc(O)nc1 [Compound 11, N-[4-(2-Furyl)-5-(4-pyridyl)thiazol-2-yl]-2-hydroxypyridine-5-carboxamide] | 100 | – | –
Cc1ncc(C(=O)Nc2nc(-c3ccco3)c(C(=O)c3ccccn3)s2)cn1 [Compound 228] | – | – | 84
Cc1ccc(C(=O)c2sc(NC(=O)c3ccncc3)nc2-c2ccco2)nc1 [Compound 294, N-[4-(2-Furyl)-5-(5-methylpyridin-2-ylcarbonyl)thiazol-2-yl]pyridine-4-carboxamide] | – | 255 to 257 | –
COC[C@H]1CCCN1CC(=O)Nc1nc(-c2ccco2)c(C(=O)C2CCOCC2)s1 [Compound 537, N-[4-(2-Furyl)-5-(tetrahydropyran-4-ylcarbonyl)thiazol-2-yl]-2-[(2R)-2-(methoxymethyl)pyrrolidin-1-yl]acetamide] | – | 103 to 104 | –
O=C(c1ccccn1)c1sc(NC(=O)C2CCC2)nc1-c1ccco1 [Compound 193, N-[4-(2-Furyl)-5-(pyridin-2-ylcarbonyl)thiazol-2-yl]cyclobutanecarboxamide] | – | 165 to 170 | –
COc1ccc(C(=O)Nc2nc(-c3ccco3)c(C(=O)c3ccccn3)s2)cc1OC [Compound 203, N-[4-(2-Furyl)-5-(pyridin-2-ylcarbonyl)thiazol-2-yl]-3,4-dimethoxybenzamide] | – | 169 to 170 | –
CC1(O)CCN(CC(=O)Nc2nc(-c3ccco3)c(C(=O)C3CCOCC3)s2)CC1 [Compound 546, N-[4-(2-Furyl)-5-(tetrahydropyran-4-ylcarbonyl)thiazol-2-yl]-2-(4-hydroxy-4-methylpiperidino)acetamide] | – | 151 to 153 | –
Cc1cc(C(=O)Nc2nc(-c3ccco3)c(C(=O)c3ccccn3)s2)c(C)o1 [Compound 240, N-[4-(2-Furyl)-5-(pyridin-2-ylcarbonyl)thiazol-2-yl]-2,5-dimethylfuran-3-carboxamide] | – | 195 to 198 | –
O=C(Nc1nc(-c2ccoc2)c(C(=O)C2CCOCC2)s1)c1ccc(F)cc1 [Compound 620, 4-Fluoro-N-[4-(3-furyl)-5-(tetrahydropyran-4-ylcarbonyl)thiazol-2-yl]benzamide] | – | 231 to 232 | –
COC(=O)Nc1nc(-c2ccco2)c(C(=O)c2ccccn2)s1 [Compound 249, Methyl N-[4-(2-furyl)-5-(pyridin-2-ylcarbonyl)thiazol-2-yl]carbamate] | 85 | – | –
